Legend:
[1] = tested on: Dahl salt-sensitive male rats; experiment: Exercise capacity by exercise calorimetry, salt-induced hypertensive heart disease model; type: in vivo, rat; settings: Dahl rats on high-salt diet; 40 mM nicotinamide in drinking water for 12 weeks; treadmill peak effort; FIG. 4a
From the text: Salt-induced hypertensive heart disease model: Dahl salt-sensitive male rats (n=24) were purchased at the age of 4 weeks from the Charles River Laboratories (Kingston, USA). Eight rats were fed the low-salt diet containing 0.3% NaCl (AIN-76A, Research Diets, Inc. USA) throughout the experiment and served as a healthy control group. Low-salt diet was fed also to the remaining 16 Dahl rats until the age of 7 weeks, when the diet was switched to a high-salt diet (AIN-76A with 8% NaCl, Research Diets, Inc. USA), and the rats were divided into two weight-matched cohorts each consisting of two equally sized groups (n=8 animals per group); group 1 received regular drinking water (non-treated control), while group 2 received regular drinking water supplemented with 40 mM nicotinamide (i.e. 0.5% w/v) for a period of 12 weeks. Rats were subjected to peak effort on a closed-chamber treadmill at an inclination of 10° coupled to a gas analyzer (CaloTreadmill). […] Calorimetric parameters, such as relative oxygen consumption (ΔVO2) and carbon dioxide production (ΔVCO2) were continuously measured at 0.2 Hz intervals during treadmill running. Maximal oxygen consumption (VO2max) and run distance were determined at the point at which oxygen uptake reached a plateau during exhaustive workout/exercise.

[2] = literature: Gale et al. 2004, Chen et al. 2015, Poyan et al. 2018; cited from earlier work
ZSF1 obese rats [3] = experiment: Lung congestion by gravimetry, cardiometabolic syndrome model; type: in vivo, rat; settings: 40 mM nicotinamide, with or without 3 mM spermidine, in drinking water for 14 weeks, FIG. 5b
Method: (§1) Cardiometabolic syndrome model: ZSF1 lean and obese rats of both genders were purchased at the age of 5 weeks from the Charles River Laboratories (Kingston, USA). Eight-week-old ZSF1 obese rats were divided into three weight-matched and equally sized/gender-balanced groups: group 1 received regular drinking water (non-treated control), group 2 received regular drinking water supplemented with 40 mM nicotinamide (i.e. 0.5% w/v), and group 3 was administered the combination of 40 mM nicotinamide and 3 mM spermidine (of synthetical origin) in drinking water for a period of 14 weeks. Water as well as food intake were monitored regularly. Age-matched untreated ZSF1 obese and lean rats served as controls.
(§2) The lung was harvested and weighed, obtaining the lung weight (LW). For normalisation, the weight was subsequently divided by the length of the left tibia bone (TL), resulting in the ratio LW/TL.
This measurement was conducted according to the method of item 2.4.1.

[4] = tested on: Dahl salt-sensitive male rats; experiment: Diastolic function by hemodynamic pressure-volume measurement, salt-induced hypertensive heart disease model; type: in vivo, rat; settings: Dahl rats on high-salt diet; 40 mM nicotinamide in drinking water for 12 weeks; FIG. 2b
From the text: Salt-induced hypertensive heart disease model: Dahl salt-sensitive male rats (n=24) were purchased at the age of 4 weeks from the Charles River Laboratories (Kingston, USA). Eight rats were fed the low-salt diet containing 0.3% NaCl (AIN-76A, Research Diets, Inc. USA) throughout the experiment and served as a healthy control group. Low-salt diet was fed also to the remaining 16 Dahl rats until the age of 7 weeks, when the diet was switched to a high-salt diet (AIN-76A with 8% NaCl, Research Diets, Inc. USA), and the rats were divided into two weight-matched cohorts each consisting of two equally sized groups (n=8 animals per group); group 1 received regular drinking water (non-treated control), while group 2 received regular drinking water supplemented with 40 mM nicotinamide (i.e. 0.5% w/v) for a period of 12 weeks. […] The heart rate was monitored by an electrocardiogram (Animal Bio Amp, FE136) and kept at 350-400 bpm throughout the experiment. […] Signals were continuously acquired (MPVS PL3508 PowerLab 8/35), digitized at 2 kHz (ML880 PowerLab 16/30), and analyzed offline (LabChart 8 Pro). After a stabilization period of 10 min, left ventricular end-diastolic pressure (EDP), a baseline parameter of diastolic function, was measured and aver-aged from ten consecutive beats, with ventilation suspended at end-expiration. […]

ZSF1 obese rats [5] = experiment: Diastolic function by echocardiography, cardiometabolic syndrome model; type: in vivo, rat; settings: 40 mM nicotinamide, with or without 3 mM spermidine, in drinking water for 14 weeks, FIG. 2c
Method: Cardiometabolic syndrome model: ZSF1 lean and obese rats of both genders were purchased at the age of 5 weeks from the Charles River Laboratories (Kingston, USA). Eight-week-old ZSF1 obese rats were divided into three weight-matched and equally sized/gender-balanced groups: group 1 received regular drinking water (non-treated control), group 2 received regular drinking water supplemented with 40 mM nicotinamide (i.e. 0.5% w/v), and group 3 was administered the combination of 40 mM nicotinamide and 3 mM spermidine (of synthetical origin) in drinking water for a period of 14 weeks. Water as well as food intake were monitored regularly. Age-matched untreated ZSF1 obese and lean rats served as controls. Transthoracic echocardiography was performed using high resolution micro-imaging system equipped with a 24- and 55-MHz linear array transducers for rats and mice, respectively, as described (Eisenberg et al. (2016), Nat Med 22(12): 1428-1438). […] Diastolic function was assessed using pulsed-wave and tissue Doppler imaging to determine the ratio between peak early-filling velocity of transmitral flow (E) and the corresponding mitral valve annulus velocity (e′), respectively. This measurement was conducted according to the method of item 2.1.1, with the exception that the rats were lightly anesthetized with 1-2% isoflurane and 98-99% 02.

Aged C57BL/6J male mice [6] = experiment: Diastolic function by echocardiography, aging model; type: in vivo, mouse; settings: 24 mM nicotinamide, with or without 3 mM spermidine, in drinking water for 4 months, FIG. 2a
Method: Aging model: Aged C57BL/6J male mice were purchased from the Charles River Laboratories (Sulzfeld, Germany) at the age of 18 months and fed standard chow. Supplementation of 24 mM nicotinamide (i.e. 0.3% w/v, changed two times per week) and of spermidine (i.e. 3 mM final concentration at pH 7.2, changed two times per week) in the regular drinking water was conducted at 20 months of age for a period of 4 months. […] Transthoracic echocardiography was performed using high resolution micro-imaging system equipped with a 24- and 55-MHz linear array transducers for rats and mice, respectively, as described (Eisenberg et al. (2016), Nat Med 22(12): 1428-1438). Briefly, lightly anesthetized mice (0.5% isoflurane and 99.5% 02) were placed in the supine position on a temperature-controlled heating platform to maintain their body temperature at 37° C. Diastolic function was assessed using pulsed-wave and tissue Doppler imaging to determine the ratio between peak early-filling velocity of transmitral flow (E) and the corresponding mitral valve annulus velocity (e′), respectively.

ZSF1 obese rats [7] = experiment: Fasting insulin determination (ELISA), cardiometabolic syndrome model; type: in vivo, rat; settings: 10 weeks of treatment (8 weeks vs. 18 weeks of age), plasma, 6-h fasted, FIG. 6b
Method: as §1
Fasted blood samples were collected from the clavicular vena plexus/jugular vein of 6-h fasted (6 AM-12 AM) and lightly anesthetized rats (2% isoflurane and 98% O2), whose body temperature was maintained at 37° C. using a temperature-controlled heating platform. Fasting insulin was measured in plasma using ultrasensitive rat ELISA kits (Crystal Chem) according to the manufacturer's protocol. The sampling and measurement was conducted at the age of 8 weeks (baseline) and at the age of 18 weeks. The fold-change was calculated by dividing the values form 18-weeks old animals and 8-weeks old animals.

ZSF1 obese rats [8] = experiment: Fasting glucose determination, cardiometabolic syndrome model; type: in vivo, rat; settings: 10 weeks of treatment (8 weeks vs. 18 weeks of age), tail vein blood, FIG. 6a
Method: as §1
The basal fasting blood glucose level was determined by collecting a drop of blood from the tail vein. Blood droplet was applied to a test strip that was inserted into a glucose analyzer (glucometer, Accu-Chek Performa). The sampling and measurement was conducted at the age of 8 weeks (baseline) and at the age of 18 weeks. The fold-change was calculated by dividing the values form 18-weeks old animals and 8-weeks old animals.

ZSF1 obese rats [9] = experiment: Cardiac hypertrophy by gravimetry, cardiometabolic syndrome model; type: in vivo, rat; settings: 40 mM nicotinamide, with or without 3 mM spermidine, in drinking water for 14 weeks, FIG. 3c
Method: Cardiometabolic syndrome model: ZSF1 lean and obese rats of both genders were purchased at the age of 5 weeks from the Charles River Laboratories (Kingston, USA). Eight-week-old ZSF1 obese rats were divided into three weight-matched and equally sized/gender-balanced groups: group 1 received regular drinking water (non-treated control), group 2 received regular drinking water supplemented with 40 mM nicotinamide (i.e. 0.5% w/v), and group 3 was administered the combination of 40 mM nicotinamide and 3 mM spermidine (of synthetical origin) in drinking water for a period of 14 weeks. Water as well as food intake were monitored regularly. Age-matched untreated ZSF1 obese and lean rats served as controls. The heart was harvested and weighed, obtaining the heart weight (HW). For normalisation, the weight was subsequently divided by the length of the left tibia bone (TL), resulting in the ratio HW/TL.

ZSF1 obese rats [10] = experiment: Exercise capacity by exercise calorimetry, cardiometabolic syndrome model; type: in vivo, rat; settings: 40 mM nicotinamide, with or without 3 mM spermidine, in drinking water for 14 weeks, treadmill peak effort, FIG. 4b
Method: Eight-week-old ZSF1 obese rats were divided into three weight-matched and equally sized/gender-balanced groups: group 1 received regular drinking water (non-treated control), group 2 received regular drinking water supplemented with 40 mM nicotinamide (i.e. 0.5% w/v), and group 3 was administered the combination of 40 mM nicotinamide and 3 mM spermidine (of synthetical origin) in drinking water for a period of 14 weeks. Water as well as food intake were monitored regularly. Age-matched untreated ZSF1 obese and lean rats served as controls. Rats were subjected to peak effort on a closed-chamber treadmill at an inclination of 10° coupled to a gas analyzer (CaloTreadmill). […] The exercise session ended at the maximal fatigue, which was defined as the lack of ability to maintain running speed despite being in contact with the electric shock for more than 5 seconds. Calorimetric parameters, such as relative oxygen consumption (ΔVO2) and carbon dioxide production (ΔVCO2) were continuously measured at 0.2 Hz intervals during treadmill running. Maximal oxygen consumption (VO2max) and run distance were determined at the point at which oxygen uptake reached a plateau during exhaustive workout/exercise.

[11] = tested on: Dahl salt-sensitive male rats; experiment: Cardiac hypertrophy by gravimetry, salt-induced hypertensive heart disease model; type: in vivo, rat; settings: Dahl rats on high-salt diet; 40 mM nicotinamide in drinking water for 12 weeks; FIG. 3b
From the text: Salt-induced hypertensive heart disease model: Dahl salt-sensitive male rats (n=24) were purchased at the age of 4 weeks from the Charles River Laboratories (Kingston, USA). Eight rats were fed the low-salt diet containing 0.3% NaCl (AIN-76A, Research Diets, Inc. USA) throughout the experiment and served as a healthy control group. Low-salt diet was fed also to the remaining 16 Dahl rats until the age of 7 weeks, when the diet was switched to a high-salt diet (AIN-76A with 8% NaCl, Research Diets, Inc. USA), and the rats were divided into two weight-matched cohorts each consisting of two equally sized groups (n=8 animals per group); group 1 received regular drinking water (non-treated control), while group 2 received regular drinking water supplemented with 40 mM nicotinamide (i.e. 0.5% w/v) for a period of 12 weeks. The heart was harvested and weighed, obtaining the heart weight (HW). For normalisation, the weight was subsequently divided by the length of the left tibia bone (TL), resulting in the ratio HW/TL.

Aged C57BL/6J male mice [12] = experiment: Cardiac hypertrophy by gravimetry, aging model; type: in vivo, mouse; settings: 24 mM nicotinamide, with or without 3 mM spermidine, in drinking water for 4 months, FIG. 3a
Method: Aging model: Aged C57BL/6J male mice were purchased from the Charles River Laboratories (Sulzfeld, Germany) at the age of 18 months and fed standard chow. Supplementation of 24 mM nicotinamide (i.e. 0.3% w/v, changed two times per week) and of spermidine (i.e. 3 mM final concentration at pH 7.2, changed two times per week) in the regular drinking water was conducted at 20 months of age for a period of 4 months. […] The heart was harvested and weighed, obtaining the heart weight (HW). For normalisation, the weight was subsequently divided by the length of the left tibia bone (TL), resulting in the ratio HW/TL.

[13] = tested on: Dahl salt-sensitive male rats; experiment: Lung congestion by gravimetry, salt-induced hypertensive heart disease model; type: in vivo, rat; settings: Dahl rats on high-salt diet; 40 mM nicotinamide in drinking water for 12 weeks; FIG. 5a
From the text: Salt-induced hypertensive heart disease model: Dahl salt-sensitive male rats (n=24) were purchased at the age of 4 weeks from the Charles River Laboratories (Kingston, USA). Eight rats were fed the low-salt diet containing 0.3% NaCl (AIN-76A, Research Diets, Inc. USA) throughout the experiment and served as a healthy control group. Low-salt diet was fed also to the remaining 16 Dahl rats until the age of 7 weeks, when the diet was switched to a high-salt diet (AIN-76A with 8% NaCl, Research Diets, Inc. USA), and the rats were divided into two weight-matched […] groups (n=8 animals per group); group 1 received regular drinking water (non-treated control), while group 2 received regular drinking water supplemented with 40 mM nicotinamide (i.e. 0.5% w/v) for a period of 12 weeks.
as §2

ZSF1 obese rats [14] = experiment: Myocardial nicotinamide and NAD+ levels by mass spectrometry, cardiometabolic syndrome model; type: in vivo, rat; settings: 40 mM nicotinamide, with or without 3 mM spermidine, in drinking water for 14 weeks
Method: Cardiometabolic syndrome model: ZSF1 lean and obese rats of both genders were purchased at the age of 5 weeks from the Charles River Laboratories (Kingston, USA). Eight-week-old ZSF1 obese rats were divided into three weight-matched and equally sized/gender-balanced groups: group 1 received regular drinking water (non-treated control), group 2 received regular drinking water supplemented with 40 mM nicotinamide (i.e. 0.5% w/v), and group 3 was administered the combination of 40 mM nicotinamide and 3 mM spermidine (of synthetical origin) in drinking water for a period of 14 weeks. Water as well as food intake were monitored regularly. Age-matched untreated ZSF1 obese and lean rats served as controls. The mass spectrometric metabolomic analysis of nicotinamide and NAD^+ in rat myocardium was performed as described previously ([…]., et al. Aging (Albany NY) 11(2019):4783-4800). About 30 mg of tissue was weighed and solubilized in tubes with ceramic beads using 1 ml of cold lysate buffer (methanol:water ratio was 9:1; at -20° C.). Tissue samples were then homogenized three times for 20 s at 5.500 rpm using a Precellys 24 tissue homogenizer followed by centrifugation for 10 min at 15.000 g and 4° C. […] Peak detection and integration of the analytes were performed using the Agilent Mass Hunter quantitative software (B.07.01). […]

obese rats = experiment: Intraperitoneal glucose tolerance test, spermidine alone in obese rats; type: in vivo, rat; settings: 10 weeks of spermidine alone, 1 g/kg glucose i.p., 12-h fasted, age 18 weeks, compared with control obese rats, FIG. 8
Method: Intraperitoneal glucose tolerance test was performed at 6 AM from 12-h fasted rats. During the experiment, rats were singly housed in empty cages without food, water or bed-ding. The basal fasting blood glucose level was determined by collecting a drop of blood from the tail vein. Blood droplet was applied onto a test strip that was inserted into a glucose analyzer (glucometer, Accu-Chek Performa). Rats were then injected intraperitoneally with 1 g of glucose per kg fasting body mass, and blood glucose levels were determined 15, 30, 60, 90 and 120 min after glucose. The sampling and measurement were conducted at the age of 18 weeks.

Structure (SMILES)	maximal oxygen consumption (VO2max) [1]	run distance [1]	tolerability at high doses during chronical administration [2]	ratio LW/TL (lung weight to tibia length), measure of lung congestion (ZSF1 obese rats [3])	left ventricular end-diastolic pressure (EDP), marker for diastolic dysfunction [4]	quotient E/e' (measure of diastolic dysfunction) (ZSF1 obese rats [5])	quotient E/e' (measure of diastolic dysfunction) (Aged C57BL/6J male mice [6])	fasting insulin level (fold-change 18 weeks vs 8 weeks) (ZSF1 obese rats [7])	fasting glucose level (fold-change 18 weeks vs 8 weeks) (ZSF1 obese rats [8])	heart weight-to-tibia length ratio (HW/TL), marker of cardiac hypertrophy (ZSF1 obese rats [9])	maximal oxygen consumption (VO2max) (ZSF1 obese rats [10])	run distance (ZSF1 obese rats [10])	heart weight-to-tibia length ratio (HW/TL), marker of cardiac hypertrophy [11]	heart weight-to-tibia length ratio (HW/TL), marker of cardiac hypertrophy (Aged C57BL/6J male mice [12])	ratio LW/TL (lung weight to tibia length), measure of lung congestion [13]	myocardial level of nicotinamide (NAM) (ZSF1 obese rats [14]; FIG. 1 left)	myocardial level of nicotinamide adenine dinucleotide+ (NAD+) (ZSF1 obese rats [14]; FIG. 1 right)	glucose clearance curve (also as AUC) (obese rats)
NC(=O)c1cccnc1 [nicotinamide]	increased	increased	well-tolerated	compensated this effect	reduced	reduced	reduced	increased	increased	reduced	increased	increased	reduced to levels similar to the control	reduced	decrease	significantly increased	significantly increased	
NCCCCNCCCN [spermidine]								no significant influence	no significant influence									did not change

From US20230293453A1, “SPERMIDINE AND USES THEREOF” (TLL THE LONGEVITY LABS GMBH, priority 2020, published 2023)
